Laboratory results taken from patent publication US20210340130A1, “Compositions and methods for treating attention deficit disorders” (priority 2016, published 2021).
Converted amounts (≈) assume the structure as drawn. Like-named read-outs stand apart in the source and are kept apart here.

Experiments:
[1] = system: hippocampal slices (CA1 population spikes)
Description: Slice Seizure Assay In these studies extracellular field potentials recording (Population Spikes) in hippocampal slices were used to determine convulsant activity (potential seizure liability). Transverse 300-400 μm hippocampal slices were taken from adult male Sprague-Dawley rats (4-6 week old) and incubated in a submerge slice recording chamber system for 30 to 60 min. The chamber was perfused with oxygenated artificial cerebral spinal fluid (ACSF) comprising (in mM): NaCl 124, KCl 3.0, KH2PO4 1.25, CaCl2.34, MgSO4 2.5, NaHCO3 26 and glucose 10 at room temperature. Population Spike (PS) recordings were made with glass electrodes filled with 2 M NaCl (1-5 megaohm) places in the region of pyramidal cell body of CA1. Electrical stimuli were produced with twisted bipolar nichrome wire electrodes in the Schaffer-commissural fiber afferents. Population spike was induced by activating Schaffer-commissural fiber using single pulse stimulation with delivered at 0.05 Hz. The maximal amplitude of PS was determined by increase stimulating intensity till second spike appears. Then the intensity was decreased to induce a 50% to 60% of maximal response. The amplitude of PS was measured for each response and plotted against time. At same time the amplitude of second PS and/or number of PS was measured and plotted against time. The size of the second PS and numbers of PS were used to estimate the seizure potential or seizure state. With 20 to 50 min stable baseline established testing compound was perfused for 10 to 20 min at each concentration to observe the effect. […] The perfusion then was switched to control ACSF and continued to record until drug effect was washed back to the baseline. CX717 and CX1739 exemplary test ampakine compounds were prepared by dissolving in DMSO and then added to ACSF.
The upper 3 panels of FIG. 5 show amplitudes for PS 1, 2 and 3 m respectively. Lower panel is the measurement of the number of PS.

[2] = Phase 1 studies (safety, tolerability, pharmacokinetics); type: in vivo
Rat (SD) = experiment: Amphetamine-stimulated locomotion and rearing in rats; type: in vivo; settings: for Minimum Effective Dose: PO, dose range 1-10 mg/kg
Description: Effects of exemplary low impact ampakines were also evaluated in mice for the ability to inhibit amphetamine-stimulated locomotor activity. Mice were placed in the locomotor chamber for 20 min to habituate, removed, injected with either vehicle or anti-ADHD ampakine (CX717), and 5 min later injected with 2 mg/kg i.p. Amphetamine. Mice were returned to the locomotor chamber 10 min later, and their activity measured for a further 15 min. In related studies, adult male CD1 mice or male Sprague-Dawley rats were acclimated in a test chamber for 20 minutes removed and dosed i.p. (mice) or orally (rats) with CX1739, vehicle, or a reference compound. Five (mice) or 10 (rats) were then injected with amphetamine (2 mg/kg, i.p.) or saline vehicle and were returned to the activity test chamber.

[3] = system: aged Rhesus macaque monkeys; experiment: Delayed match-to-sample test; type: in vivo, Monkey (Rhesus); settings: for Minimum Effective Dose: PO
Description: Further elucidating the potent behavioral and cognitive effects of exemplary ampakines useful within the invention, additional studies using the well known Monkey Delayed Match to Sample assay were conducted. CX1739 was evaluated using aged Rhesus macaque monkeys (18 to 33 years old), undertaking the delayed match-to-sample (DMTS) task. The stimuli included red, blue, or yellow rectangles. A trial was initiated by presentation of a sample rectangle composed of one of the three colors. The sample rectangle remained in view until the monkey touched within its borders to initiate a pre-programmed delay (retention) interval. Following the delay interval, two choice rectangles were presented, with one of the two choice colors being the color matching the stimulus and the other (incorrect) color as one of the two remaining colors. A correct (matching) choice was reinforced. Non-matching choices were neither reinforced nor punished. The duration for each delay interval was adjusted for each subject until […] of group performance accuracy approximated zero delay (85-100% of trials answered correctly), short delay interval (75-84% correct), medium delay interval (65-74% correct), and long delay interval (55-64% correct). The inter-trial interval was 5 seconds and each session consisted of 96 trials.

[4] = system: hippocampal LTP (hilus of the dentate gyrus); experiment: Effect on induction of LTP in rat hippocampus (anesthetized rat, in vivo); set-up: species or system Rat (Long Evans); settings: for Minimum Effective Dose: IP
[5] = system: non-selective alpha1 adrenergic receptor; experiment: Radioligand binding, alpha1 adrenergic receptor; settings: 100 μM
64 GPCRs = experiment: Cell-based functional GPCR assays (Table 4.2.2-1); settings: agonist at 30 μM, antagonist at 37.5 μM; 64 functional GPCR assays
Description: Additional studies involving G-protein coupled receptor assays were conducted for CX1739 to further illustrate the scope and flexibility of binding activity profiling available for ampakine screening according to the invention. CX1739 was evaluated in a second broad in vitro pharmacology screen, comprising cell-based functional G-protein coupled receptor assays for 64 GPCRs, identified in Table 4.2.2-1 below.

[6] = Limit of solubility (in ACSF perfusion); type: physicochemical; settings: artificial cerebral spinal fluid (ACSF), aqueous buffer, kinetic from dmso stock

## O=C(c1ccc2nonc2c1)N1CCOCC1 [CX717, 1-(benzofurazan-5-ylcarbonyl)morpholine]
[1]; concentrations up to 600 uM
  seizure activity (population spikes): did not display seizure activity
[2]; human
  absorption: dose-proportional manner
[2]; human, in vivo, read-out: elimination half-life (t1/2)
  half-life: 9 to 10 h
[2]; human, in vivo, read-out: time-to-maximum concentration (tmax)
  Tmax: 4 to 5 h
[2]; in vivo
  tolerability in healthy volunteers: well-tolerated with no serious AEs
Rat (SD); 3 mg/kg
  amphetamine-stimulated locomotion activity: significant decrease
Rat (SD); 1 and 3 mg/kg
  amphetamine-stimulated rearing: inhibits rearing
Rat (SD)
  Minimum Effective Dose: 1 mg/kg
[3]
  Minimum Effective Dose: 0.8 mg/kg
[4]; 2 mg/kg, after the tetanus, P<0.01
  enhancement of hippocampal LTP relative to baseline: 200%
[4]
  Minimum Effective Dose: 2 mg/kg

## CN(C(=O)c1ccc2nonc2c1)C1CCOCC1 [CX1739, N-Methyl-N-tetrahydro-2H-pyran-4-yl-[2,1,3]-benzoxadiazole-5-carboxamide]
[5]
  inhibition of binding of a reference ligand: 67%
[1]; 100 μM for 20 min and then 200 μM for another 20 min
  seizure activity (population spikes): no sign of seizure activity
[1]; 100 μM then 200 μM perfusion
  amplitude of the first PS: did not change the amplitude of the first PS
64 GPCRs
  GPCR agonist and antagonist activity: did not exhibit any significant agonist or antagonist activity
[6]; read-out: limit of solubility
  solubility: 200 µM (≈ 52.3 µg/mL)
[6]; read-out: limit of the drug's solubility
  solubility: ~200 µM (≈ 52.3 µg/mL)
Rat (SD)
  Minimum Effective Dose: 1 mg/kg
Rat (SD); rats, all doses tested
  amphetamine-stimulated rearing behavior: modest reduction
[3]
  Minimum Effective Dose: 0.3 mg/kg
[3]; oral, 45 min prior to testing
  performance with medium or long delays: did not improve performance
[3]; oral, 45 min prior to testing, particularly the two higher doses, persisted at 24 hours
  mean accuracies during short delay trials relative to vehicle: increased
[3]; sessions 45 min after administration, P=0.027, restricted to long delay trials
  task accuracy at the Best Dose: statistically significant increase in task accuracy
[4]; 3 mg/kg, p<0.01
  effect on LTP: statistically significant increase in LTP
[4]
  Minimum Effective Dose: 3 mg/kg
